Assay results taken from patent publication US10550388B2, “Targeting pleiotrophin signaling to limit high-grade glioma invasion” (The Board of Trustees of the Leland Stanford Junior …, priority 2017, dated 2020).

Legend:
SU-DIPG-XIII FL cells [1] = experiment: Matrigel invasion assay (Boyden chamber) of DIPG cells; assay type: cell-based, human; conditions: 72 hours; for DIPG invasion toward SVZ hNPC CM: inhibitor added to the cells in the top insert, dose curve, vehicle DMSO control
Protocol: To test for chemoattraction and invasion toward neural precursor cell conditioned media or another candidate chemoattractant, a single-cell suspension of 100,000 DIPG cells in Tumor Stem Media (TSM) base (with B27 (−A) and heparin, without growth factors) was seeded in the top inserts of BioCoat growth factor reduced Matrigel invasion chambers (Corning, Bedford, Mass.), after rehydration of the inserts. Chemoattractant media was added to the bottom of the chamber. All conditions were plated in triplicate. After 72 hours, media was aspirated, and the non-invading cells on top of the layer of Matrigel were scrubbed off. The invading cells were fixed in 4% paraformaldehyde and then stained with 0.1% crystal violet in 10% methanol in distilled water. The number of invading cells was quantified by the intensity of the crystal violet dye on the invading side of the Matrigel. The dye was collected in 10% acetic acid, and absorbance was measured at 595 nm.
To test the ROCK or HSP90 inhibitors in the Matrigel invasion assay, the inhibitors were added to the suspension of glioma cells in TSM base (with B27 (−A) and heparin) seeded in the top inserts at the appropriate concentrations, and neural precursor cell conditioned media was plated in the bottom chambers. The rest of the procedure was performed as described above.

[2] = rodent models (Egorin et al. 2001); cited from earlier work
SU-DIPG-XIII FL cells [3] = experiment: CellTiter-Glo cell viability assay; assay type: cell-based, human; conditions: increasing doses of inhibitor; 72 hours
Protocol: To assess cell viability, 5,000 DIPG cells per well were seeded in base media or full growth media in a 96-well plate. Inhibitors were added at the appropriate concentrations. After 72 hours, CellTiter-Glo reagent 2.0 was added at a 1:1 ratio, and cells were lysed. Luminescence was measured after stabilization of signal for 10 minutes at room temperature.

pleiotrophin = experiment: Knockdown of pleiotrophin expression in the mouse SVZ; assay type: in vivo; conditions: stereotactic injection into the mouse SVZ; vs scrambled shRNA control
Protocol: (§1) Mice used for shRNA lentivirus studies received shRNA-expressing lentivirus in the SVZ at P27-29 and DIPG cells in the left pons at P34-36. For lentiviral injections, 2 μL of shRNA-expressing lentivirus were stereotactically injected into the SVZ. Stereotactic coordinates used were: 1.3 mm lateral to midline, 0.1 mm posterior to bregma suture, and 2 mm deep. Virus was injected and the needle was withdrawn according to the same procedure as described above.
Mice were intraperitoneally injected with Avertin (tribromoethanol) for anesthesia, and then transcardially perfused with 20 mL of ice-cold PBS. Brains were dissected out and fixed in 4% paraformaldehyde in PBS overnight at 4° C., and were then transferred to 30% sucrose in PBS for cryoprotection. Brains were embedded in Tissue-Tek O.C.T. (Sakura, Torrance, Calif.). Brains from mice older than P10 were sliced into 40 μm coronal or sagittal sections using a sliding microtome (Microm HM450; Thermo Scientific, Waltham, Mass.). Brains from mice age P0 to P10 were sliced into 25 μm coronal sections using a cryostat (Leica Biosystems CM3050 S; 1058 Wetzlar, Germany). For immunohistochemistry, a 1 in 6 series of 25 μm or 40 μm sections was incubated in blocking solution (3% normal donkey serum, 0.3% Triton X-100 in TBS) at room temperature for 1 hour. […]

SU-DIPG-XIII FL cells [4] = experiment: shRNA-expressing lentivirus injected into the SVZ of orthotopically xenografted mice; assay type: in vivo, NSG mice; conditions: vs scrambled shRNA control; for DIPG cells invading the SVZ: 16 weeks following pontine xenograft
Protocol: NSG mice at age P34-36 were orthotopically xenografted with SU-DIPG-XIII frontal lobe CMV-GFP-luciferase cells, in a similar procedure to as previously described (Grasso et al., supra; Venkatesh et al. (2015) Cell 161, 803-816). Briefly, a single-cell suspension of SU-DIPG-XIII frontal lobe CMV-GFP-luciferase cells at passage 16-19 was prepared in sterile HBSS immediately before beginning the xenograft procedure. 600,000 cells in 3 μL were stereotactically injected into the pons of the left hemisphere of NSG mice, through a 31-gauge burr hole. Stereotactic coordinates used were: 1 mm lateral to midline, 0.8 mm posterior to lambda suture, and 5 mm deep. Cells were injected at a rate of 0.4 μL/min using a digital pump and a 31-gauge Hamilton syringe. After infusion of cells, the syringe needle was kept in place for 2 minutes, and then withdrawn manually at a rate of 0.875 mm/min to minimize the backflow of cells.
as §1
Mice were imaged using an IVIS Spectrum to ensure tumor engraftment and monitor tumor size. Mice were anesthetized under 1% isoflurane, intraperitoneally injected with luciferin (15 mg/kg), and imaged for bioluminescence every minute until the peak total flux was reached.
For quantification of DIPG invasion of the SVZ after knock down of targets in the SVZ, 5 NSG mice per group were injected with shRNA-expressing lentivirus in bilateral SVZs and orthotopically xenografted with SU-DIPG-XIII FL in the left pons. Mice were perfused for analysis 16 weeks after xenograft. A 1:6 series of coronal slices from each mouse brain was immunostained and imaged, and the number of GFP^+ HNA^+ glioma cells within 200 μm of the lateral ventricles in all slices containing lateral ventricles was manually counted.
For quantification of neural stem/precursor cells in the SVZ after knock down of PTN in the SVZ, a 1:6 series of coronal slices from each mouse was immunostained and imaged, and the number of Sox2^+ neural stem/precursor cells in a 20×Z-stack was manually counted. The density of Sox2^+ cells was calculated as cells/mm^3.

In the case of `C=CCNC1=C2C[C@@H](C)C[C@H](OC)[C@H](O)[C@@H](C)/C=C(\C)[C@H](OC(N)=O)[C@@H](OC)/C=C\C=C(/C)C(=O)NC(=CC1=O)C2=O` [17-AAG, tanespimycin, reference compound], the “concentrations at which invasion toward SVZ hNPC CM is decreased” value (SU-DIPG-XIII FL cells [1]; in vitro, inhibitor in the top insert) is given as “above 1 μM” and the Brain penetration [2] is given as “less than 1 μM”.
For `CCn1c(-c2nonc2N)nc2cnc(Oc3cccc(NC(=O)c4ccc(OCCN5CCOCC5)cc4)c3)cc21` [GSK 269962A, reference compound], the “DIPG invasion toward SVZ hNPC CM” value (SU-DIPG-XIII FL cells [1]) was “decreased DIPG invasion toward SVZ hNPC CM in a dose-dependent manner” and the “cell viability of DIPG cells” value (SU-DIPG-XIII FL cells [3]) was “do not affect cell viability at sub-μM concentrations”.
With `CC1=C(C(=O)Nc2cc3cn[nH]c3cc2F)C(c2ccc(C(F)(F)F)cc2)CC(=O)N1` (stereo not drawn) [GSK 429286, reference compound] the “DIPG invasion toward SVZ hNPC CM” value (SU-DIPG-XIII FL cells [1]) was “decreased DIPG invasion toward SVZ hNPC CM in a dose-dependent manner” and the “cell viability of DIPG cells” value (SU-DIPG-XIII FL cells [3]) was “do not affect cell viability at sub-μM concentrations”.
For “sh-Ptn: lentivirus-expressed shRNA against mouse PTN, Sigma TRCNO000071676, SEQ ID NO: 8 (CCGGGCACAATGCTGACTGTCAGAACTCGAGTTCTGACAGTCAGCATTGTGCTTTTTG)”, the “knockdown of pleiotrophin expression” value (pleiotrophin) was “effective knockdown of pleiotrophin expression”, the “DIPG cells invading the SVZ” value (SU-DIPG-XIII FL cells [4]) was “fewer orthotopically xenografted GFP^+ HNA^+ SU-DIPG-XIII FL cells invaded the SVZ” and the “DIPG cells invading the SVZ” value (SU-DIPG-XIII FL cells [4]; listed as shRNA targeting Ptn) was “fewer DIPG cells invaded the SVZ”. For the same compound, the “density of Sox2+ neural stem/precursor cells in the SVZ” value (SU-DIPG-XIII FL cells [4]) was “equivalent”, the “tumor engraftment (bioluminescent flux)” value (SU-DIPG-XIII FL cells [4]) was “equivalent” and the “density of Sox2+ neural stem/precursor cells in the SVZ” value (SU-DIPG-XIII FL cells [4]; listed as Ptn shRNA) was “equivalent numbers of Sox2^+ NPCs”.
